The subject of one assay is Target Negative Cell. As to the kind of experiment: Tumor cell line assay Example 2b, target negative cells. It is filed as cell-based. The following applies: hemiasterlin derivatives, 120 hrs. How it is done:
(§1) Cytotoxicity effects of test compounds on target positive and target negative cells were measured with a cell proliferation assay. Tumor cell lines were obtained from American Type Culture Collection (ATCC) and maintained in Ham's F-12: high glucose DMEM (50:50) glucose medium supplemented with 10% heat-inactivated fetal bovine serum, 1% Penicillin/Streptomcin and 2 mmol/L L-glutamax. Target positive and negative cells (a total of 625 cells per well) were seeded in a volume of 25 μL in a 384-well flat bottom white polystyrene plate. The cells were allowed to adhere overnight at 37° C. in a CO2 incubator. ADC variants were formulated at 2× concentration in DMEM/F12 medium and filtered through MultiScreen HTS 96-Well Filter Plates. Filter sterilized ADCs were serial diluted (1:3) and 25 μL of diluted samples were added into each treatment wells. Plates were then cultured at 37° C. in a CO2 incubator for 120 hrs. For cell viability measurement, 30 μL of Cell Titer-Glo® reagent (Promega Corp) was added into each well, and plates processed as per product instructions. Relative luminescence was measured on an ENVISION® plate reader (Perkin-Elmer; Waltham, Mass.). Relative luminescence readings were converted to % viability using untreated cells as controls. Data was fitted with non-linear regression analysis, using log(inhibitor) vs. response, variable slope, 4 parameter fit equation using GraphPad Prism (GraphPad v 5.00, Software; San Diego, Calif.). Data was expressed as % relative cell viability vs. dose of ADC in nM.

The next assay concerns Target Positive Cell. As to the kind of experiment: Tumor cell line assay Example 2b, target positive cells. It is filed as cell-based. The following applies: hemiasterlin derivatives, 120 hrs. The procedure: as §1
In another assay the test system is ARD (MM). As to the kind of experiment: Cell binding assay anti-CD74, ARD. The following applies: Multiple Myeloma. How it is done: (§2) Cell lines were maintained in RPMI, high glucose (Cellgro-Mediatech; Manassas, Va.) supplemented with 20% heat-inactivated fetal bovine serum (Hyclone; Thermo Scientific; Waltham, Mass.), 2 mM glutamax (Invitrogen; Carlsbad, Calif.) and 1× Pencillin/streptomycin (Cellgro-Mediatech; Manassas, Va.). Cells were harvested and re-suspended in FACS buffer (DPBS buffer supplemented with 1% bovine serum albumin). A total of 200,000 cells per well were incubated on ice with serial dilutions of anti-CD74 lead SP7919 without conjugation for 60 minutes. Cells were washed twice with ice-cold FACS buffer and incubated with 5 ug/ml Alexa 647 labeled donkey anti-human IgG antibody (Jackson Immune-Research) on ice for another 60 mins. Unstained cells and cells stained with secondary antibody alone were used as controls. Samples were then washed twice using FACS buffer and analyzed using a BD FACS Canto system. Mean fluorescence intensities were fitted using non-linear regression analysis with one site specific binding equation on GraphPad Prism. Data was expressed as geometric mean fluorescent intensity vs. antibody concentration in nM.

The next assay concerns RPMI-8226 (MM). As to the kind of experiment: Cell binding assay anti-CD74, RPMI-8226. The following applies: Multiple Myeloma. How it is done: as §2
The test system of the next assay is RPMI-6666 (HL). As to the kind of experiment: Cell binding assay anti-CD74, RPMI-6666. The following applies: B-Lymphoma. The procedure: as §2
The test system of a further assay is JVM-13 (CLL). As to the kind of experiment: Cell binding assay anti-CD74, JVM-13. The following applies: Leukemia. The procedure:
as §2

The subject of the next assay is SU-DHL-6 (NHL). As to the kind of experiment: Cell binding assay anti-CD74, SU-DHL-6. The following applies: B-Lymphoma. How it is done:
as §2

The next assay relates to SUP-B15 (ALL). As to the kind of experiment: Cell binding assay anti-CD74, SUP-B15. The following applies: Leukemia. The procedure:
as §2

The subject of a further assay is BDCM (AML). As to the kind of experiment: Cell binding assay anti-CD74, BDCM. The following applies: Leukemia. How it is done:
as §2

As a reminder, the IC50 is the concentration at which inhibition is half-maximal. Read a high IC50 as a need for much substance. Regarding `CN[C@H](C(=O)N[C@H](C(=O)N(C)[C@H](/C=C(\C)C(=O)O)C(C)C)C(C)(C)C)C(C)(C)c1cccc(NC(=O)OCc2ccc(NC(=O)[C@H](CCCNC(N)=O)NC(=O)[C@@H](NC(=O)CCC(=O)N3Cc4ccccc4C#Cc4ccccc43)C(C)C)cc2)c1` (single isomer, unassigned) [Compound 101a], in the assay on Target Negative Cell, the midpoint of inhibition, the IC50, lay at 2.01 µM and the “Target Negative Cell Span (%)” value is 110%. Besides, in the assay on Target Positive Cell, half-maximal inhibition (IC50) required 0.222 µM and the “Target Positive Cell Span (%)” value amounted to 93%.
For the molecule `CN[C@H](C(=O)NC(C(=O)N(C)[C@H](/C=C(\C)C(=O)O)C(C)C)C(C)(C)C)C(C)(C)c1cccc(NC(=O)OCc2cc(C)c(OC3OC(C(=O)O)C(O)C(O)C3O)c(NC(=O)CCNC(=O)CCCCC(=O)N3Cc4ccccc4C#Cc4ccccc43)c2)c1` (stereo partly drawn) [Compound 109a], in the assay with Target Negative Cell, it took 2.44 µM to reach half-maximal inhibition (IC50) and the “Target Negative Cell Span (%)” value stood at 95%. Also, in the assay on Target Positive Cell, half-maximal inhibition (IC50) required 0.661 µM and the “Target Positive Cell Span (%)” value came to 92%.
`CN[C@H](C(=O)N[C@H](C(=O)N(C)[C@H](/C=C(\C)C(=O)O)C(C)C)C(C)(C)C)C(C)(C)c1cccc(NC(=O)OCc2ccc(NC(=O)[C@H](C)NC(=O)[C@@H](NC(=O)CCCCC(=O)N3Cc4ccccc4C#Cc4ccccc43)C(C)C)cc2)c1` [Compound 110a]: in the assay with Target Negative Cell, the IC50 came to 0.337 µM and the “Target Negative Cell Span (%)” value is recorded as 90%. Also, in the assay on Target Positive Cell, the IC50 turned out to be 0.026 µM and the “Target Positive Cell Span (%)” value is on record as 93%.
In the case of `CNC(C(=O)N[C@H](C(=O)N(C)[C@H](/C=C(\C)C(=O)O)C(C)C)C(C)(C)C)C(C)(C)c1cccc(NC(=O)[C@H](C)NC(=O)[C@@H](NC(=O)CCCCC(=O)N2Cc3ccccc3C#Cc3ccccc32)C(C)C)c1` (stereo partly drawn) [Compound 111a], in the assay with Target Negative Cell, it took 0.717 µM to reach half-maximal inhibition (IC50) and the “Target Negative Cell Span (%)” value is on record as 91%. Further, in the assay with Target Positive Cell, the IC50 was determined as 0.065 µM and the “Target Positive Cell Span (%)” value came out at 92%.

B1: anti-CD74: anti-CD74 lead SP7919 without conjugation (antibody, V domains shown)
VH: QVQLVESGGGVVQPGRSLRLSCAASGFNFSDYGMHWVRQAPGKGLEWVAVIWYDGSISYYADSVKGRFTISRDNSKNTLYLQMNSLRAEDTAVYYCARGGTVEHGAVYGTDVWGQGTTVTVSS
VL: DIQMTQSPSSVSASVGDRVTITCRASQGIGSWLAWYQQKPGKAPKLLIYAADRLQSGVPSRFSGSGSGTDFTLTISSLQPEDFATYYCQQYHTYPLTFGGGTKVEIK
modifications: non-natural residues
A word on the Kd: it is the free concentration of one partner at which half of the binding sites on the other are occupied at equilibrium, for simple one-to-one binding. The low end stands for tighter binding, the high end for weaker binding. Consider B1, for which the “Cell Binding anti-CD74 Bmax” value in the assay on ARD (MM) is given as 190; with RPMI-8226 (MM), 119; with RPMI-6666 (HL), 3879; with JVM-13 (CLL), 447; in the assay with SU-DHL-6 (NHL) it was 1565; in the assay with SUP-B15 (ALL), 680. Moreover, in the assay on BDCM (AML), the “Cell Binding anti-CD74 Bmax” value stood at 3059. Further, the Kd in the assay on ARD (MM) came to 0.0026 µM; in the assay with RPMI-8226 (MM) it was 0.0036 µM; in the assay with RPMI-6666 (HL), 0.0023 µM; in the assay on JVM-13 (CLL), 0.0025 µM; with SU-DHL-6 (NHL) it was 0.002 µM; in the assay with SUP-B15 (ALL) it was 0.0035 µM. Besides, the Kd with BDCM (AML) turned out to be 0.0045 µM.

For the origin of these results see patent publication US11866515B2, “Hemiasterlin derivatives for conjugation and therapy” (priority 2015, dated 2024).
